Experimental data as given in paper PMC8998618, “A Pharmacokinetic and Metabolism Study of the TRPC6 Inhibitor SH045 in Mice by LC-MS/MS” (International Journal of Molecular Sciences, 2022).

Columns and labels:
[1] = detection of SH045 metabolites in MLM, HLM and mouse urine by LC-MS/MS; format: in vitro ADME, mouse and human; conditions: metabolite of SH045 detected in MLM, HLM (NADPH, UDPGA) and/or mouse urine after 20 mg/kg BW i.v.
Experimental: To explore metabolites of SH045 formed by microsomes, DPBS, alamethicin (25 µg/mL) and MLM or HLM (1.0 mg/mL) were pre-incubated, further incubated with SH045 MgCl2, NADPH and UDPGA, terminated, and processed for LC-MS/MS analysis as described. Positive controls with testosterone and 4-nitrophenol and negative controls were analyzed too (Supplementary Materials SM7).
Larixyl-N-methylcarbamate ((1S,4S,4aR,8aS)-4-((S)-3-hydroxy-3-methylpent-4-en-1-yl)-4a,8,8-trimethyl-3-methylenedeca-hydro-naphthalen-1-yl methylcarbamate, SH045, TRPC6 inhibitor) was synthesized as described by Häfner et al. [1]. (+)-Larixol (internal standard, IS) was isolated from Larix decidua turpentine [2]. Kolliphor® EL was obtained from Caelo (Hilden, Germany). […]
SM2 Quantification of SH045 by HPLC and tandem mass spectrometric methods (LC-MS/MS) In brief, chromatographic separation was achieved using a Zorbax Eclipse XDB-C8 column (100 × 3.0 mm, 3.5 μm 80 Å, Agilent Technologies) with linear gradient elution using water and ACN, each with 0.1 % formic acid as additive, during a total run time of 20 min. For quantification (+)-larixol was used as IS. […] Freshly prepared calibration samples for SH045 in plasma and tissue comprised eight concentration levels analyzed in duplicates (2, 5, 10, 100, 200, 800, 1200 and 1600 ng/mL). […]

TRPC6 = conditions: Ca^2+ influx assays; cited from earlier work
[2] = test system: FSGS-related TRPC6 channel mutants, including M132T and R175Q; parameters: method as in PMID 28800680; conditions: including M132T and R175Q variants; cited from earlier work

Row | Occurrence [1] | Structure (SMILES) | IC50 (TRPC6) [nM] | inhibition of FSGS-related TRPC6 channel mutants [2]
1 | MLM, HLM | CC[C@@](C)(O)CC[C@H]1C(C)C[C@H](OC(=O)NC)[C@H]2C(C)(C)CCC[C@]12C (some centres unmarked) [M2a] | – | –
2 | MLM, HLM | C=C[C@](C)(CC[C@H]1C(=C)C[C@H](OC(=O)NC)[C@H]2C(C)(C)CCC[C@]12C)O[C@@H]1O[C@H](C(=O)O)[C@@H](O)[C@H](O)[C@H]1O [M8a] | – | –
3 | – | C=CC(C)(O)CCC1C(=C)CC(OC(C)=O)C2C(C)(C)CCCC12C (centres unmarked) [larixyl monoacetate] | ~500 | –
4 | – | C=CC(C)(O)CCC1C(=C)CC(OC(N)=O)C2C(C)(C)CCCC12C (centres unmarked) [larixyl-6-carbamate] | ~500 | strong inhibitor
